According to US11613538B2, “Method of inhibiting or reducing a viral infection” (PTC Therapeutics, Inc., priority 2009, dated 2023):

Tested on: hypoxia-induced VEGF production in HeLa cells
Experiment: cells
Type: cell-based, human
Details: Homo sapiens, HeLa

SMILES	EC50
OCCCOc1ccc([C@H]2c3[nH]c4ccc(Cl)cc4c3CCN2c2nc(C(F)(F)F)cs2)cc1 [Compound 1632]	< 8 nM
CCOC(=O)N1CCc2c([nH]c3cccc(Br)c23)C1c1ccc(OC)cc1 (stereo not drawn) [Compound 1521]	200 to 1000 nM
Clc1ccc2[nH]c3c(c2c1)CCN(c1ncccn1)C3c1ccc(OCCCn2cncn2)cc1 (stereo not drawn) [Compound 1201]	< 8 nM
COc1ccc(OC(=O)N2CCc3c([nH]c4ccc(Cl)cc34)C2c2ccc(OCC(=O)N3CCN(CCCN(C)C)CC3)cc2)cc1 (stereo not drawn) [Compound 1029]	> 1000 nM
COc1ccc([C@H]2C3Nc4ccc(Cl)cc4C3CCN2C(=O)OC2CCCC2)cc1 (stereo partly drawn) [Compound 1298]	< 8 nM
CC(C)(C)OC(=O)N1CCc2c([nH]c3ccc(Cl)cc23)C1c1ccc(OCCCn2nccn2)cc1 (stereo not drawn) [Compound 1186]	< 8 nM
CCOC(=O)N1CCc2c([nH]c3ccc(Cl)cc23)[C@@H]1c1ccc(OCC[C@H]2COC(C)(C)O2)cc1 [Compound 1202]	< 8 nM
C[Si](C)(C)CCS(=O)(=O)N1CCC(Oc2ccc([C@H]3c4[nH]c5ccc(Cl)cc5c4CCN3C(=O)Oc3ccc(F)cc3)cc2)CC1 [Compound 1607]	< 8 nM
CC(C)(C)OC(=O)N1CCc2c([nH]c3ccc(Cl)cc23)C1c1ccc(OCCCn2ccnn2)cc1 (stereo not drawn) [Compound 1185]	< 8 nM
COCCOC(=O)N1CCc2c([nH]c3ccc(Cl)cc23)C1c1ccc(OCCCn2ccnn2)cc1 (stereo not drawn) [Compound 1083]	8 to 40 nM
CC(C)COC(=O)N1CCc2c([nH]c3ccc(Br)cc23)C1c1ccc(OCC(O)CO)cc1 (stereo not drawn) [Compound 1342]	< 8 nM
COc1cc(C2c3[nH]c4ccc(Cl)cc4c3CCN2C(=O)Oc2ccc(F)cc2)ccc1OCCCN1CCOCC1 (stereo not drawn) [Compound 1133]	< 8 nM
COCCN(CCCOc1cccc(C2c3[nH]c4ccc(Cl)cc4c3CCN2C(=O)Oc2ccc(F)cc2)c1)CCOC (stereo not drawn) [Compound 1119]	40 to 200 nM
COc1ccc(C2c3[nH]c4ccc(Cl)cc4c3CCN2C(=O)OCCn2cncn2)cc1 (stereo not drawn) [Compound 1158]	> 1000 nM
CCOC(=O)N1CCc2c([nH]c3ccc(Cl)cc23)[C@@H]1c1ccc(Oc2ncccn2)cc1 [Compound 1573]	< 8 nM
C/C=C/C(=O)N1CCc2c([nH]c3ccc(Cl)cc23)C1c1ccc(OCCCn2cncn2)cc1 (stereo not drawn) [Compound 1510]	8 to 40 nM
COc1ccc(C2c3[nH]c4ccc(Cl)cc4c3CCN2c2nc(-c3ccccc3)cs2)cc1 (stereo not drawn) [Compound 1598]	< 8 nM
CCOC(=O)NC[C@@H](O)COc1ccc([C@H]2c3[nH]c4ccc(Cl)cc4c3CCN2C(=O)Oc2ccc(F)cc2)cc1 [Compound 1664]	< 8 nM
O[C@@H](CCOc1ccc([C@H]2c3[nH]c4ccc(Cl)cc4c3CCN2c2ncccn2)cc1)CN1CCCCC1 [Compound 1304]	< 8 nM
[H]/N=C(\N)NCCOc1ccc(C2c3[nH]c4ccc(Cl)cc4c3CCN2C(=O)OCC#CC)cc1 (stereo not drawn) [Compound 1402]	200 to 1000 nM
CC(=O)N[C@@H](Cc1ccccc1)C(=O)N1CCc2c([nH]c3ccc(Cl)cc23)C1c1ccc(OCCN2CCOCC2)cc1 (stereo partly drawn) [Compound 1506]	> 1000 nM
CCOC(=O)N1CCc2c([nH]c3ccc(Cl)cc23)C1c1ccc(OCCNc2nccnn2)cc1 (stereo not drawn) [Compound 1398]	40 to 200 nM
C=CCOc1ccc([C@H]2c3[nH]c4ccc(Cl)cc4c3CCN2C(=O)OCC2CCC2)cc1 [Compound 1366]	< 8 nM
COc1ccc(C2c3[nH]c4cccc(Cl)c4c3CCN2C(=O)Oc2ccc(Cl)cc2)cc1 (stereo not drawn) [Compound 1531]	40 to 200 nM

SMILES	EC50
COc1ccc(C2c3[nH]c4ccc(Cl)cc4c3CCN2c2nc(-c3ccsc3)cs2)cc1 (stereo not drawn) [Compound 1595]	8 to 40 nM
CCOC(=O)N1CCc2c([nH]c3ccc(SC)cc23)C1c1ccc(OC)cc1 (stereo not drawn) [Compound 1482]	40 to 200 nM
CCOC(=O)N1CCc2c([nH]c3ccc(Cl)cc23)[C@@H]1c1ccc(OCCC(O)CNC(=O)OCCOC)cc1 (stereo partly drawn) [Compound 1621]	< 8 nM
CC(C)COC(=O)N1CCc2c([nH]c3ccc(Cl)cc23)C1c1ccc(OCC[C@H]2COC(C)(C)O2)cc1 (stereo partly drawn) [Compound 1165]	< 8 nM
COc1ccc(-c2csc(N3CCc4c([nH]c5ccc(Cl)cc45)C3c3ccc(OC)cc3)n2)cc1 (stereo not drawn) [Compound 1591]	< 8 nM
CCOC(=O)N1CCc2c([nH]c3ccc(Cl)cc23)C1c1ccc(OCC(O)CNS(=O)(=O)CC)cc1 (stereo not drawn) [Compound 1473]	< 8 nM
Oc1ccc([C@H]2c3[nH]c4ccc(Cl)cc4c3CCN2c2ncccn2)cc1 [Compound 1241]	8 to 40 nM
COc1ccc(C2c3[nH]c4ccc(Cl)cc4c3CCN2c2nc(C(C)(C)C)cs2)cc1 (stereo not drawn) [Compound 1587]	< 8 nM
O=C(Oc1ccc(F)cc1)N1CCc2c([nH]c3ccc(Cl)cc23)C1c1cccc(OCCCN2CCSCC2)c1 (stereo not drawn) [Compound 1117]	8 to 40 nM
COc1ccc(OC(=O)N2CCc3c([nH]c4ccc(Cl)cc34)C2c2ccc(OCCCN3CCOCC3)cc2)cc1 (stereo not drawn) [Compound 1030]	8 to 40 nM
CC(C)OC(=O)N1CCc2c([nH]c3ccc(Cl)cc23)[C@@H]1c1ccc(OCCCO)cc1 [Compound 1252]	< 8 nM
CCOC(=O)N1CCc2c([nH]c3ccc(Br)cc23)C1c1ccc(OCC[C@H](O)CO)cc1 (stereo partly drawn) [Compound 1345]	< 8 nM
CN1CCN(C[C@@H](O)COc2ccc([C@H]3c4[nH]c5ccc(Cl)cc5c4CCN3c3ncccn3)cc2)CC1 [Compound 1312]	8 to 40 nM
COc1ccc(C2c3[nH]c4ccc(Cl)cc4c3CCN2C(=O)C(=O)NC2CCCC2)cc1 (stereo not drawn) [Compound 1710]	40 to 200 nM
CCOC(=O)N1CCc2c([nH]c3ccc(Cl)cc23)C1c1cccc(OCCCn2ccnn2)c1 (stereo not drawn) [Compound 1124]	200 to 1000 nM
CC(C)(C)COC(=O)N1CCc2c([nH]c3ccc(Cl)cc23)C1c1ccc(OCC[C@H]2COC(C)(C)O2)cc1 (stereo partly drawn) [Compound 1167]	< 8 nM
Clc1ccc2[nH]c3c(c2c1)CCN(c1ncccn1)[C@H]3c1ccc(OC[C@@H]2CO2)cc1 [Compound 1245]	8 to 40 nM
NC(=O)COc1ccc(C2c3[nH]c4ccc(Cl)cc4c3CCN2C(=O)Oc2ccc(Br)cc2)cc1 (stereo not drawn) [Compound 1214]	8 to 40 nM
CC(CO)(CO)COc1ccc([C@H]2c3[nH]c4ccc(Cl)cc4c3CCN2C(=O)OCC2CC2)cc1 [Compound 1375]	< 8 nM
O=C(OC1CCCC1)N1CCc2c([nH]c3ccc(Cl)cc23)[C@@H]1c1ccc(OCCCO)cc1 [Compound 1285]	< 8 nM
O[C@H](COc1ccc([C@H]2c3[nH]c4ccc(Cl)cc4c3CCN2c2ncccn2)cc1)CN1CCOCC1 [Compound 1249]	< 8 nM
[H]/N=c1\scnn1CCOc1ccc(C2c3[nH]c4ccc(Cl)cc4c3CCN2C(=O)OCC)cc1 (stereo not drawn) [Compound 1400]	< 8 nM
CN1CCC(OCCCOc2ccc(C3c4[nH]c5ccc(Cl)cc5c4CCN3C(=O)Oc3ccc(Cl)cc3)cc2)CC1 (stereo not drawn) [Compound 1554]	> 1000 nM
O=C(OCCF)N1CCc2c([nH]c3ccc(Cl)cc23)C1c1ccc(OCC2OCCO2)cc1 (stereo not drawn) [Compound 1039]	< 8 nM

SMILES	EC50
C=COC(=O)N1CCc2c([nH]c3ccc(Cl)cc23)C1c1ccc(OCC2OCCO2)cc1 (stereo not drawn) [Compound 1043]	< 8 nM
O=C(Oc1ccc(Cl)cc1)N1CCc2c([nH]c3ccc(Cl)cc23)[C@@H]1c1ccc(OC2CCN(CCN3CCOCC3)CC2)cc1 [Compound 1682]	< 8 nM
O=C(Oc1ccc(F)cc1)N1CCc2c([nH]c3cc(Br)ccc23)C1c1ccc(OC(F)F)cc1 (stereo not drawn) [Compound 1450]	40 to 200 nM
CCC(CO)(CO)COc1ccc([C@H]2c3[nH]c4ccc(Cl)cc4c3CCN2C(=O)OCC2CCCC2)cc1 [Compound 1687]	< 8 nM
COc1ccc(C2c3[nH]c4ccc([S+](C)[O-])cc4c3CCN2C(=O)OC(C)(C)C)cc1 (stereo not drawn) [Compound 1494]	> 1000 nM
CC#CCOC(=O)N1CCc2c([nH]c3ccc(Cl)cc23)C1c1ccc(OCC[C@H]2COC(C)(C)O2)cc1 (stereo partly drawn) [Compound 1166]	< 8 nM
OC[C@@H](O)COc1ccc([C@H]2c3[nH]c4ccc(Cl)cc4c3CCN2c2nc(C(F)(F)F)cs2)cc1 [Compound 1633]	< 8 nM
O[C@@H](CCOc1ccc([C@H]2c3[nH]c4ccc(Cl)cc4c3CCN2c2ncccn2)cc1)CN1CCOCC1 [Compound 1303]	< 8 nM
COc1ccc(C2c3[nH]c4c(C)cccc4c3CCN2C(=O)Oc2ccc(Cl)cc2)cc1 (stereo not drawn) [Compound 1429]	> 1000 nM
CCOC(=O)NCC(O)COc1ccc(C2c3[nH]c4ccc(Cl)cc4c3CCN2C(=O)OCC)cc1 (stereo not drawn) [Compound 1470]	< 8 nM
COc1ncc(C2c3[nH]c4ccc(Cl)cc4c3CCN2C(=O)Oc2ccc(Cl)cc2)cn1 (stereo not drawn) [Compound 1689]	8 to 40 nM
CC(C)(C)OC(=O)N1CCc2c([nH]c3ccc(Cl)cc23)C1c1ccc(OCCCn2cnnc2)cc1 (stereo not drawn) [Compound 1187]	< 8 nM
CCOC(=O)N1CCc2c([nH]c3ccc(Br)cc23)C1c1ccc(OCC(O)CO)cc1 (stereo not drawn) [Compound 1340]	8 to 40 nM
CCOC(=O)N1CCc2c([nH]c3ccc(Cl)cc23)C1c1cccc(OCCCN2CCN(C)CC2)c1 (stereo not drawn) [Compound 1112]	> 1000 nM
COc1ccc(OC(=O)N2CCc3c([nH]c4ccc(Cl)cc34)C2c2ccc(OCCCN3CCN(C)CC3)cc2)cc1 (stereo not drawn) [Compound 1108]	8 to 40 nM
C#CCOC(=O)N1CCc2c([nH]c3ccc(Cl)cc23)C1c1ccc(OCC(O)CO)cc1 (stereo not drawn) [Compound 1020]	8 to 40 nM
O=C(OCc1ccccc1)N1CCc2c([nH]c3ccc(Cl)cc23)C1c1ccc(OCCCn2ccnn2)cc1 (stereo not drawn) [Compound 1107]	< 8 nM
CC#CCOC(=O)N1CCc2c([nH]c3cc(F)ccc23)C1c1ccc(C)cc1 (stereo not drawn) [Compound 1456]	> 1000 nM
OC[C@H](O)COc1ccc([C@H]2c3[nH]c4ccc(Cl)cc4c3CCN2c2nc(C(F)(F)F)cs2)cc1 [Compound 1634]	< 8 nM
CC1(COc2ccc([C@H]3c4[nH]c5ccc(Cl)cc5c4CCN3C(=O)OC3CCCC3)cc2)COC(C)(C)OC1 [Compound 1319]	< 8 nM
COc1ccc(C2c3[nH]c4ccc(Cl)cc4c3CCN2C(=O)C(=O)OC2CCCC2)cc1 (stereo not drawn) [Compound 1719]	> 1000 nM
CCOC(=O)N1CCc2c([nH]c3ccc(Cl)cc23)C1c1ccc(OC)c(F)c1 (stereo not drawn) [Compound 1198]	8 to 40 nM
CC(C)COC(=O)N1CCc2c([nH]c3ccc(Br)cc23)C1c1ccc(OCC(C)(CO)CO)cc1 (stereo not drawn) [Compound 1351]	< 8 nM
CCOC(=O)N1CCc2c([nH]c3ccc(Br)cc23)C1c1ccc(C(=O)N(C)CC(=O)O)cc1 (stereo not drawn) [Compound 1390]	> 1000 nM
